Reference: the supplement of paper PMC4862054
Values joined by “and” are separate entries in the source; they are usually repeats but may differ in a detail not shown here. Identical values can stand only once.

Experiments:
Details in all cases: incubation time: 72 h
[1] = tested on: HCC1143; assay: normalised viability (% of control), CellTiter-Blue; higher = more viable cells (100 = DMSO, 0 = benzethonium chloride kill control)
Protocol: (§1)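 DSRT, CellTiter-Blue viability, 72 h incubation. Signal is normalised to DMSO and benzethonium chloride controls. Value is the normalised response at dose 1.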

[2] = tested on: MDA-MB-436; assay: as above
Protocol: as §1

[3] = tested on: SK-BR-3; assay: as above
Protocol: as §1

[4] = tested on: CAL-51; assay: as above
Protocol: as §1

[5] = tested on: BT-474; assay: as above
Protocol: as §1

[6] = tested on: Hs578T; assay: as above
Protocol: as §1

[7] = tested on: HCC1937; assay: as above
Protocol: as §1

[8] = tested on: CAL-85-1; assay: as above
Protocol: as §1

[9] = tested on: CAL-148; assay: as above
Protocol: as §1

[10] = tested on: HCC1599; assay: as above
Protocol: as §1

[11] = tested on: DU-4475; assay: as above
Protocol: as §1

[12] = tested on: MDA-MB-231; assay: as above
Protocol: as §1

[13] = tested on: BT-549; assay: as above
Protocol: as §1

[14] = tested on: CAL-120; assay: as above
Protocol: as §1

[15] = tested on: MDA-MB-468; assay: as above
Protocol: as §1

[16] = tested on: MDA-MB-453; assay: as above
Protocol: as §1

[17] = tested on: HDQ-P1; assay: as above
Protocol: as §1

[18] = tested on: MFM-223; assay: as above
Protocol: as §1

[19] = tested on: CAL-51; assay: normalised viability (% of control), CellTiter-Blue; higher = more viable cells (about 100 = DMSO control)
Protocol: (§2)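 DSRT, CellTiter-Blue viability, 72 h incubation. Signal is normalised to DMSO and benzethonium chloride controls. Value is the normalised response at dose 9.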

[20] = tested on: CAL-85-1; assay: as above
Protocol: as §2

[21] = tested on: CAL-148; assay: as above
Protocol: as §2

[22] = tested on: DU-4475; assay: as above
Protocol: as §2

[23] = tested on: MDA-MB-453; assay: as above
Protocol: as §2

[24] = tested on: HDQ-P1; assay: as above
Protocol: as §2

[25] = tested on: HCC1143; assay: normalised response (% of control), CellTiter-Glo; higher = more viable cells (100 = DMSO, 0 = benzethonium chloride kill control)
Outline: (§3)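 Each value is the plate-normalised signal at one concentration of the series. Breast cancer cell lines (20 µl suspension) were incubated 72 h in 384-well plates with compound at 5 concentrations in 10-fold steps over a compound-specific 10,000-fold range. CellTox Green and then CellTiter-Glo were read, and each plate was scaled to 0.1 % DMSO (100) and a positive kill control (0).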

[26] = tested on: MDA-MB-436; assay: as above
Outline: as §3

[27] = tested on: SK-BR-3; assay: as above
Outline: as §3

[28] = tested on: CAL-51; assay: as above
Outline: as §3

[29] = tested on: BT-474; assay: as above
Outline: as §3

[30] = tested on: Hs578T; assay: as above
Outline: as §3

[31] = tested on: HCC1937; assay: as above
Outline: as §3

[32] = tested on: CAL-85-1; assay: as above
Outline: as §3

[33] = tested on: CAL-148; assay: as above
Outline: as §3

[34] = tested on: HCC1599; assay: as above
Outline: as §3

[35] = tested on: DU-4475; assay: as above
Outline: as §3

[36] = tested on: MDA-MB-231; assay: as above
Outline: as §3

[37] = tested on: MCF-10A; assay: as above
Outline: as §3

[38] = tested on: BT-549; assay: as above
Outline: as §3

[39] = tested on: CAL-120; assay: as above
Outline: as §3

[40] = tested on: MDA-MB-468; assay: as above
Outline: as §3

[41] = tested on: MDA-MB-453; assay: as above
Outline: as §3

[42] = tested on: HDQ-P1; assay: as above
Outline: as §3

[43] = tested on: MFM-223; assay: as above
Outline: as §3

SMILES: Cc1cc(Nc2cc(CN3CCOCC3)c3nc(C)c(Cc4ccc(Cl)cc4F)n3n2)n[nH]1 (1 nM)
- normalised viability [1]: 88.6%
- normalised viability [2]: 87.7%
- normalised viability [3]: 104%
- normalised viability [4]: 98%
- normalised viability [5]: 92.4%
- normalised viability [6]: 107%
- normalised viability [7]: 85.9%
- normalised viability [8]: 82.1%
- normalised viability [9]: 95.6%
- normalised viability [10]: 110%
- normalised viability [11]: 119%
- normalised viability [12]: 89.5%
- normalised viability [13]: 97.8%
- normalised viability [14]: 86.9%
- normalised viability [15]: 103%
- normalised viability [16]: 85.3%
- normalised viability [17]: 65.2%
- normalised viability [18]: 93.8%

SMILES: Cc1cc(Nc2cc(CN3CCOCC3)c3nc(C)c(Cc4ccc(Cl)cc4F)n3n2)n[nH]1 (10000 nM)
- normalised viability [19]: 12.5%
- normalised viability [20]: 33.1%
- normalised viability [21]: 62.4%
- normalised viability [22]: 36.9%
- normalised viability [23]: 36%
- normalised viability [24]: 15%

SMILES: COC(=O)c1ccc2c(c1)NC(=O)/C2=C(\Nc1ccc(N(C)C(=O)CN2CCN(C)CC2)cc1)c1ccccc1 [BIBF 1120] (1 nM)
- normalised viability [1]: 95.7%
- normalised viability [2]: 114%
- normalised viability [3]: 93.3%
- normalised viability [4]: 99.7%
- normalised viability [5]: 124%
- normalised viability [6]: 109%
- normalised viability [7]: 117%
- normalised viability [8]: 94.3%
- normalised viability [9]: 105%
- normalised viability [10]: 87.2%
- normalised viability [11]: 112%
- normalised viability [12]: 129%
- normalised viability [13]: 119%
- normalised viability [14]: 83.6%
- normalised viability [15]: 108%
- normalised viability [16]: 101%
- normalised viability [17]: 114%
- normalised viability [18]: 91.8%

SMILES: COC(=O)c1ccc2c(c1)NC(=O)/C2=C(\Nc1ccc(N(C)C(=O)CN2CCN(C)CC2)cc1)c1ccccc1 [BIBF 1120] (10000 nM)
- normalised viability [19]: 42.3%
- normalised viability [20]: 53.9%
- normalised viability [21]: 70.5%
- normalised viability [22]: 24.8%
- normalised viability [23]: 2.37%
- normalised viability [24]: 56.6%

SMILES: Nc1cc(C(F)(F)F)c(-c2cc(N3CCOCC3)nc(N3CCOCC3)n2)cn1 [BKM-120] (10000 nM)
- normalised viability [19]: 4.15%
- normalised viability [20]: 20.1%
- normalised viability [21]: 6.46%
- normalised viability [22]: 12.7%
- normalised viability [23]: 6.1%
- normalised viability [24]: 12.4%

SMILES: COc1cc2ncnc(Nc3ccc(F)c(Cl)c3)c2cc1OCCCN1CCOCC1 [Gefitinib] (1 nM)
- normalised viability [1]: 73.7% and 90.5%
- normalised viability [2]: 92.2% and 90.9%
- normalised viability [3]: 87.4% and 97.4%
- normalised viability [4]: 108% and 107%
- normalised viability [7]: 91.6% and 89.4%
- normalised viability [8]: 85.3% and 81.5%
- normalised viability [9]: 107% and 106%
- normalised viability [10]: 85.7% and 96.3%
- normalised viability [11]: 104% and 98.6%
- normalised viability [12]: 94.2% and 90.6%
- normalised viability [13]: 120% and 111%
- normalised viability [14]: 77.2% and 85.9%
- normalised viability [15]: 90% and 110%
- normalised viability [16]: 97.3% and 100%
- normalised viability [17]: 108% and 86.3%
- normalised viability [18]: 89.3% and 83.4%
- normalised response [25]: 102%
- normalised response [26]: 85.5%
- normalised response [27]: 108%
- normalised response [28]: 93.1%
- normalised response [29]: 97.7%
- normalised response [30]: 99%
- normalised response [31]: 91.6%
- normalised response [32]: 101%
- normalised response [33]: 107%
- normalised response [34]: 99.2%
- normalised response [35]: 99.3%
- normalised response [36]: 97.2%
- normalised response [37]: 98.8%
- normalised response [38]: 94.8%
- normalised response [39]: 97.6%
- normalised response [40]: 105%
- normalised response [41]: 109%
- normalised response [42]: 94.4%
- normalised response [43]: 105%
